Data as given in paper PMC12083017, “Enhanced oral bioavailability of two Cistanche polysaccharides in acteoside: an in-depth analysis of intestinal flora, short-chain fatty acids, and pharmacokinetic regulation” (Frontiers in Nutrition, 2025).
Like-named read-outs stand apart in the source and are kept apart here.

How the values were obtained:
[1] = Pharmacokinetics of acteoside and its metabolites in rat plasma after oral acteoside (UPLC-QqQ-MS); assay type: in vivo, male Sprague–Dawley rats; conditions: for AUC(0-inf) / AUC(0-t) / Tmax / half-life / Cmax / MRT last / MRT inf: male, Sprague-Dawley, rat, plasma, po, 100 mg/kg; for MRT last: read-out: MRT(0-t); for MRT inf: read-out: MRT(0-∞)
Excerpt: After a week of acclimatization, rats were split into three groups at random: the wine-processed Cistanche polysaccharide group (WCP group), the unprocessed Cistanche polysaccharide group (UCP group), and the blank control group (Control group). Six rats each group were raised in the same cage for breeding. Prior to the experiment, provide water and regular laboratory meals to the rats at will and fast for one night before the experiment. In order to ensure the continuous intake of Cistanche polysaccharides, it was calculated according to the requirements of the Chinese Pharmacopoeia ([16]) based on the daily dosage of Cistanche for adults, the polysaccharide yield of Cistanche polysaccharides and the equivalent conversion formula of the drug administration between humans and rats ([17]). An appropriate amount of raw Cistanche polysaccharide and Cistanche wine polysaccharide were weighed, dissolved in pure water, and prepared with 15.06 g·kg^-1 administration solution for continuous administration for 21 days. After fasting overnight, on day 22, two fresh fecal samples were collected from each rat, put straight into a sterile tube from the anus, avoiding contact with skin or urine, and stored in a -80°C freezer immediately after freezing with liquid nitrogen for subsequent analysis. For the pharmacokinetics, in a 1.5 mL heparinized centrifuge tube, 0.3 mL of continuous blood collected from the orbital vein was taken from 0 min, 5 min, 10 min, 30 min, 1.0 […], and 36 h following oral administration of acteoside (100 mg/kg) in the three groups. Using a cryo-centrifuge, plasma samples were produced by centrifuging at 800 g for ten minutes at 4°C. After that, plasma samples were gathered and kept for later examination at -80°C. […] Following this,20 μL of genistein (1 μg/mL IS) solution and 600 μL of cold acetonitrile were then included and centrifuged for 5 min, the […] proteins were separated by vortexing for 5 min, and then they were spun down for 15 min at 4°C at 14,000 rpm. The supernatant was gathered and dried at 40°C with a light nitrogen stream. The dried remnant was then immersed in 100 μL of 25% aqueous acetonitrile fluid, and centrifugation was performed again for 10 min at 4°C at 14,000 rpm. Ultimately, the LC-MS/MS system was injected with 2 μL of the liquid for analysis. A 1.7 μm and 2.1 × 100 mm I.D. […] With a column temperature of 30°C, the flow rate was fixed at 0.3 mL/min. In the mass spectrometry analysis, negative ionization mode was performed with the following optimized parameters: capillary voltage, 3.0 kV; desolvation temperature, 400°C. […] Thus, multiple reaction monitoring (MRM) of the acteoside transitions at 623.37 → 161.02 m/z, caffeic acid transitions at 179.01 → 135.03 m/z, hydroxytyrosol transitions at 153.03 → 122.95 m/z, genistein transitions at 269.08 → 132.57 m/z was used for quantification. […] Data were processed using Masslynx workstation data acquisition and qualitative analysis software (4.1, Waters, USA). Using the DAS program (Chinese Pharmacological Society, Beijing, China), pharmacokinetic parameters were estimated.

[2] = assay type: physicochemical; conditions: rat; for Short-term stability (RSD,%): 4 h; for Post-preparation stability (RSD,%): 24 h; for Long-term stability (RSD,%): 15 days
Description: A 4°C freezer was then used to make and store the stock solution (1 mg/mL). Moreover, 50% methanol was used to dilute 1 μg/mL of the IS working solution. […] Before being analyzed, the entire set of QC samples were kept at −80°C. An examination of stability using QC samples at low, medium, and high doses. Short-term stability was measured by injecting samples after staying 4 h at room temperature (25°C). After preparation, the sample was kept at 4°C for 24 h, and the dosage was injected to ascertain the sample’s stability. To determine long-term stability, samples were frozen at −80°C for 15 days before being injected. By thawing the samples three times in a row at room temperature and a freezer at −20°C, the freeze–thaw stability was ascertained.

[3] = acteoside in rat plasma, oral acteoside 100 mg/kg, Control group, n = 6
[4] = acteoside in rat plasma, oral acteoside 100 mg/kg, UCP group, n = 6
[5] = acteoside in rat plasma, oral acteoside 100 mg/kg, WCP group, n = 6
[6] = metabolite in rat plasma following oral acteoside 100 mg/kg, Control group, n = 6
[7] = metabolite in rat plasma following oral acteoside 100 mg/kg, UCP group, n = 6
[8] = metabolite in rat plasma following oral acteoside 100 mg/kg, WCP group, n = 6

SMILES: C[C@@H]1O[C@@H](O[C@@H]2[C@@H](O)[C@H](OCCc3ccc(O)c(O)c3)O[C@H](CO)[C@H]2OC(=O)/C=C/c2ccc(O)c(O)c2)[C@H](O)[C@H](O)[C@H]1O [Acteoside, acteoside]
- AUC(0-inf) [1, 3]: 4360 ± 130 ng·h/mL
- AUC(0-t) [1, 3]: 4200 ± 153 ng·h/mL
- Tmax [1, 3]: 0.5 h
- half-life [1, 3]: 2.06 ± 1.3 h
- Cmax ([1]; acteoside in rat plasma, oral acteoside 100 mg/kg, Control group, n = 6, read-out: Cmax): 863 ± 63.4 ng/mL
- MRT last [1, 3]: 3.94 ± 0.165 h
- MRT inf [1, 3]: 4.34 ± 0.512 h
- AUC(0-t) ([1]; acteoside in rat plasma, oral acteoside 100 mg/kg, UCP group (21 days UCP before), n = 6): 4980 ± 231 ng·h/mL
- AUC(0-inf) [1, 4]: 5050 ± 267 ng·h/mL
- Tmax [1, 4]: 0.75 h
- Cmax ([1]; acteoside in rat plasma, oral acteoside 100 mg/kg, UCP group, n = 6, read-out: Cmax): 1030 ± 98.3 ng/mL
- MRT last [1, 4]: 4.94 ± 0.165 h
- MRT inf [1, 4]: 5.29 ± 0.629 h
- AUC(0-t) ([1]; acteoside in rat plasma, oral acteoside 100 mg/kg, WCP group (21 days WCP before), n = 6): 6660 ± 543 ng·h/mL
- AUC(0-inf) [1, 5]: 6690 ± 633 ng·h/mL
- Tmax [1, 5]: 0.75 h
- Cmax ([1]; acteoside in rat plasma, oral acteoside 100 mg/kg, WCP group, n = 6, read-out: Cmax): 1590 ± 103 ng/mL
- MRT last [1, 5]: 4.996 ± 0.032 h
- MRT inf [1, 5]: 5.6 ± 0.837 h
- Cmax ([1]; rat plasma, oral acteoside 100 mg/kg, Control group, read-out: mean Cmax of acteoside): 863 ng/mL
- Cmax ([1]; rat plasma, oral acteoside 100 mg/kg, UCP group, read-out: mean Cmax of acteoside): 1030 ng/mL
- Cmax ([1]; rat plasma, oral acteoside 100 mg/kg, WCP group, read-out: mean Cmax of acteoside): 1590 ng/mL
- AUC(0-∞) of acteoside, increase after UCP relative to control ([1]; rats, oral acteoside 100 mg/kg): 1.16 times
- AUC(0-∞) of acteoside, increase after WCP relative to control ([1]; rats, oral acteoside 100 mg/kg): 1.54 times
- Cmax of acteoside, UCP group relative to control group ([1]; rats, oral acteoside 100 mg/kg): 1.19 times
- Cmax of acteoside, WCP group relative to control group ([1]; rats, oral acteoside 100 mg/kg): 1.84 times
- t1/2 of acteoside, WCP group relative to UCP group ([1]; rats, oral acteoside 100 mg/kg): 1.18 times
- Freeze–thaw stability (RSD,%) ([2]; 25 ng/mL): 7.93%
- Freeze–thaw stability (RSD,%) ([2]; 200 ng/mL): 4.56%
- Freeze–thaw stability (RSD,%) ([2]; 1000 ng/mL): 4.45%
- Short-term stability (RSD,%) ([2]; 25 ng/mL): 6.91%
- Short-term stability (RSD,%) ([2]; 200 ng/mL): 3.15%
- Short-term stability (RSD,%) ([2]; 1000 ng/mL): 2.79%
- Post-preparation stability (RSD,%) ([2]; 25 ng/mL): 7.03%
- Post-preparation stability (RSD,%) ([2]; 200 ng/mL): 3.46%
- Post-preparation stability (RSD,%) ([2]; 1000 ng/mL): 3.68%
- Long-term stability (RSD,%) ([2]; 25 ng/mL): 8.28%
- Long-term stability (RSD,%) ([2]; 200 ng/mL): 6.67%
- Long-term stability (RSD,%) ([2]; 1000 ng/mL): 4.99%

SMILES: O=C(O)/C=C/c1ccc(O)c(O)c1 [Caffeic acid, caffeic acid]
- AUC(0-inf) [1, 6]: 110 ± 15.4 ng·h/mL
- AUC(0-t) [1, 6]: 76.1 ± 13.3 ng·h/mL
- Tmax [1, 6]: 0.75 h
- half-life [1, 6]: 2.17 ± 0.693 h
- Cmax ([1]; metabolite in rat plasma following oral acteoside 100 mg/kg, Control group, n = 6, read-out: Cmax): 30.4 ± 14.2 ng/mL
- MRT last [1, 6]: 1.56 ± 0.172 h
- MRT inf [1, 6]: 2.51 ± 0.273 h
- AUC(0-inf) [1, 7]: 117 ± 13.3 ng·h/mL
- AUC(0-t) [1, 7]: 100 ± 17.7 ng·h/mL
- Tmax [1, 7]: 0.75 h
- Cmax ([1]; metabolite in rat plasma following oral acteoside 100 mg/kg, UCP group, n = 6, read-out: Cmax): 44.1 ± 15.8 ng/mL
- MRT last [1, 7]: 1.54 ± 0.166 h
- MRT inf [1, 7]: 2.18 ± 0.267 h
- AUC(0-inf) [1, 8]: 144 ± 26.7 ng·h/mL
- AUC(0-t) [1, 8]: 125 ± 25.9 ng·h/mL
- Tmax [1, 8]: 0.75 h
- half-life [1, 8]: 1.29 ± 0.914 h
- Cmax ([1]; metabolite in rat plasma following oral acteoside 100 mg/kg, WCP group, n = 6, read-out: Cmax): 55.5 ± 16.9 ng/mL
- MRT last [1, 8]: 1.52 ± 0.161 h
- MRT inf [1, 8]: 2.1 ± 0.256 h
- Cmax of metabolite, WCP group relative to UCP group ([1]; rats, following oral acteoside 100 mg/kg): 1.26 times
- Freeze–thaw stability (RSD,%) ([2]; 25 ng/mL): 9.14%
- Freeze–thaw stability (RSD,%) ([2]; 200 ng/mL): 8.23%
- Freeze–thaw stability (RSD,%) ([2]; 1000 ng/mL): 7.08%
- Short-term stability (RSD,%) ([2]; 25 ng/mL): 7.78%
- Short-term stability (RSD,%) ([2]; 200 ng/mL): 7.34%
- Short-term stability (RSD,%) ([2]; 1000 ng/mL): 4.91%
- Post-preparation stability (RSD,%) ([2]; 25 ng/mL): 8.33%
- Post-preparation stability (RSD,%) ([2]; 200 ng/mL): 7.87%
- Post-preparation stability (RSD,%) ([2]; 1000 ng/mL): 6.87%
- Long-term stability (RSD,%) ([2]; 25 ng/mL): 9.75%
- Long-term stability (RSD,%) ([2]; 200 ng/mL): 8.56%
- Long-term stability (RSD,%) ([2]; 1000 ng/mL): 8.43%
